Experimental data as given in patent US9340510B2, “Tetrahydroisoquinoline derivatives, pharmaceutical compositions and uses thereof” (Boehringer Ingelheim International GmbH, priority 2014, dated 2016).

What follows are compounds tested against human ACC2 (Homo sapiens (Human), UniProt O00763) (assay: ACC2 assay: spectrophotometric 384 well assay (coupled lactate dehydrogenase/pyruvate kinase)). Settings: hACC2 construct lacking the 128 N-terminal amino acids, 25° C., 340 nm.
Format: biochemical
Description: Spectrophotometric 384 Well Assay
Malonyl CoA formation by acetyl CoA carboxylases is stoichiometrically linked to the consumption of ATP. ACC2 activity is measured in a […] kinetic method measuring ADP generated during the ACC reaction using a coupled lactate dehydrogenase/pyruvate kinase reaction.
For biological testing, a human ACC2 construct which lacks the 128 amino acids at the N-terminus for increased solubility (nt 385-6966 in Genbank entry AJ575592) is cloned. The protein is then expressed in insect cells using a baculoviral expression system. Protein purification is performed by anion exchange.
All compounds are dissolved in dimethyl sulfoxide (DMSO) to a concentration of 10 mM.
Assay reactions are then carried out in 384-well plates, with hACC2 in an appropriate dilution and at final assay concentrations (f.c.) of 100 mM Tris (pH 7.5), 10 mM trisodium citrate, 25 mM KHCO3, 10 mM MgCl2, 0.5 mg/ml BSA, 3.75 mM reduced L-glutathione, 15 U/ml lactate dehydrogenase, 0.5 mM phosphoenolpyruvate, 15 U/ml pyruvate kinase, compounds at different concentrations at final DMSO concentrations of 1%.
The enzymatic reaction is then started by addition of a mixture of NADH, acetyl Coenzyme A (both […].) and ATP (500 uM f.c.). The decrease of the optical density (slope S) is then determined at 25° C. at a wavelength of 340 nm over 15 minutes in a spectrophotometric reader.
Each assay microtiter plate contains wells with vehicle instead of compound as controls for the non-inhibited enzyme (100% CTL; ‘HIGH’) and wells without acetyl-CoA as controls for non-specific NADH degradation (0% CTL; ‘LOW’).
The slope S is used for calculation of % CTL=(S(compound)−S(‘LOW’))/(S(‘HIGH’)−S(‘LOW’))*100. Compounds will give values between 100% CTL (no inhibition) and 0% CTL (complete inhibition).
For IC50 value determination, the sample slope in the presence of the test compound after subtraction of the low controls (S(compound)−S(‘LOW’)) are used.
An IC50 value is derived from the compound slopes at different dosages after subtraction of the low controls (S(compound)-S(‘LOW’)) by non-linear regression curve fitting (equation y=(A+((B−A)/(1+((C/x)^D))))).

human ACC2, sequence (O00763 129-2458): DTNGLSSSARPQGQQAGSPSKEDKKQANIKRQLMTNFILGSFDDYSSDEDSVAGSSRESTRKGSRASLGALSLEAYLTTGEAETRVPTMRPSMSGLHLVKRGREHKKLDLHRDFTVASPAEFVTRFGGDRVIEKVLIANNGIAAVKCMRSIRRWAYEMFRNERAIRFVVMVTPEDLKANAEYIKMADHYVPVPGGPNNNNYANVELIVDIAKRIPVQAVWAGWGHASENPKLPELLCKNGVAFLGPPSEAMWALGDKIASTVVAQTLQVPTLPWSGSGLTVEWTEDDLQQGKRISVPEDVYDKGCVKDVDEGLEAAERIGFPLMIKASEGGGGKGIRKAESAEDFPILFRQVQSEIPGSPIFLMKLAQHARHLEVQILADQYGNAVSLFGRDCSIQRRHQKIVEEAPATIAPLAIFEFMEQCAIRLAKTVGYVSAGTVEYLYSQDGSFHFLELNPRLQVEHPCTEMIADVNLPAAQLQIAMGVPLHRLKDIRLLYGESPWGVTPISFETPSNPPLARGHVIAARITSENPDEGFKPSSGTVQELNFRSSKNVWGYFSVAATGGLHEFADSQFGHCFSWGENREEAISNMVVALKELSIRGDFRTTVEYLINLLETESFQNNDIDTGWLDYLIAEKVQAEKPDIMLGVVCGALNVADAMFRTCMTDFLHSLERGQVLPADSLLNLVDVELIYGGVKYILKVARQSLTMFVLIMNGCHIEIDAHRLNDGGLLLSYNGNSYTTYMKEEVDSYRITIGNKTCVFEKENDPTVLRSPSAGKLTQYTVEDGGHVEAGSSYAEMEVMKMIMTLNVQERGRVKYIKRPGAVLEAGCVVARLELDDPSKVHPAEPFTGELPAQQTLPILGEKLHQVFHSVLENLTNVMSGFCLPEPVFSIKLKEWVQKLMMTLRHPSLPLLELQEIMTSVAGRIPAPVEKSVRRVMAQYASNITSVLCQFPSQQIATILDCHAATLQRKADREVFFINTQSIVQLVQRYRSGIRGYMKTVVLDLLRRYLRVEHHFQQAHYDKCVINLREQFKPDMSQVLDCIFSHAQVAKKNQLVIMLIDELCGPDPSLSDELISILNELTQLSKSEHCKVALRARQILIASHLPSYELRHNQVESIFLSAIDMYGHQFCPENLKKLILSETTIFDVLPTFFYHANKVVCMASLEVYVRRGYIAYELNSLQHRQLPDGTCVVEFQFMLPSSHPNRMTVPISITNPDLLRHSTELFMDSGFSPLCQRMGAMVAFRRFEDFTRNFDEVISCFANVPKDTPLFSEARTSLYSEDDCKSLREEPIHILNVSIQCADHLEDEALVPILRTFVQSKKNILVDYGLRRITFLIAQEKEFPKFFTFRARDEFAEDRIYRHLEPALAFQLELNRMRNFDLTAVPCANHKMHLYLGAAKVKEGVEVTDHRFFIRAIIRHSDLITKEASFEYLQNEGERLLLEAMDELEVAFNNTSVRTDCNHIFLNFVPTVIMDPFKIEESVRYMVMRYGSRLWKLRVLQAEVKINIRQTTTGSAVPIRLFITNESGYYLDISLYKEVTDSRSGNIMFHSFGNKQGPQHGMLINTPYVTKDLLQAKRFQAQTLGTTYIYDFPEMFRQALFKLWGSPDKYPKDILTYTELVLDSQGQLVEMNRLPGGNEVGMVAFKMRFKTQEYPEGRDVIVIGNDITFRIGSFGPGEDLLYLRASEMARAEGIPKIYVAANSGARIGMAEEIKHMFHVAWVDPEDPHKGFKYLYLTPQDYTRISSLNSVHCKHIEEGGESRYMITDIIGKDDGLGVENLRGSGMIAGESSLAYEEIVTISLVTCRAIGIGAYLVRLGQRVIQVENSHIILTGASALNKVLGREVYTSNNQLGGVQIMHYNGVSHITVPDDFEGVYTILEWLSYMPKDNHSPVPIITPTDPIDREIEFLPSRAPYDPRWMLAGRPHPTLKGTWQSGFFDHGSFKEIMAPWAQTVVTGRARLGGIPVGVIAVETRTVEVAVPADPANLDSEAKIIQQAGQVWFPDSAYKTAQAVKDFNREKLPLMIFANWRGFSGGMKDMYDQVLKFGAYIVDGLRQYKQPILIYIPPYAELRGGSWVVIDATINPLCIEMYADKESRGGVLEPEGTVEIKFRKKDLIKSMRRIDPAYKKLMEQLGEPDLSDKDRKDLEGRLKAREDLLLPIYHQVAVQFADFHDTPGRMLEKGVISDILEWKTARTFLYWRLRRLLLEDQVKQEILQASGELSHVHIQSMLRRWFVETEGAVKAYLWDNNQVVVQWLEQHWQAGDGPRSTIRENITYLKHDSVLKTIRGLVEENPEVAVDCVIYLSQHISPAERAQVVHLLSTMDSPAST

Compound | IC50 [nM]
CC(=O)N[C@@H](C)c1ccc(CN2CCc3c(ccc(OC(C)C)c3Br)C2)cc1 [Example 1.079] | 136
C[C@H](NC(=O)C1CC1)c1ccc(CN2CCc3c(ccc(OCC4CC4)c3Cl)C2)cc1 [Example 1.050] | 120
COc1c(OCC2CC(F)(F)C2)ccc2c1CCN(Cc1ccc([C@H](C)NC(C)=O)cc1)C2C (stereo partly shown) [Example 1.087] | 189
C[C@H](NC(=O)c1cncs1)c1ccc(CN2CCc3c(cccc3C(F)(F)F)C2)cc1 [Example 2.006] | 85
COc1c(OCC2CC(F)(F)C2)ccc2c1CCN(Cc1ccc([C@H](C)NC(C)=O)cc1)C2 [Example 1.075] | 55
C[C@H](NC(=O)C1CC1)c1ccc(CN2CCc3cc(OCCC(F)(F)F)ccc3C2)cc1 [Example 1.045] | 83
CC(=O)NC(C)c1ccc(CN2CCc3c(ccc(OCC4CC4(F)F)c3Br)C2)cc1 (stereo not shown) [Example 1.031] | 76
CC(=O)Nc1nc(C)c(C(=O)N[C@@H](C)c2ccc(CN3CCc4c(cccc4OC4CCC4)C3)cc2)s1 [Example 2.012] | 97
COc1c(OCC2CC(F)(F)C2)ccc2c1CCN(Cc1ccc([C@H](C)NC(=O)C3CC3)cc1)C2 [Example 1.056] | 51
COc1cccc2c1CCN(Cc1ccc([C@H](C)NC(=O)c3cncs3)cc1)C2 [Example 2.001, Thiazole-5-carboxylic acid {(S)-1-[4-(5-methoxy-3,4-dihydro-1H-isoquinolin-2-ylmethyl)-phenyl]-ethyl}-amide] | 135
COc1c(OCC2CC2)ccc2c1CCN(Cc1ccc([C@H](C)NC(C)=O)cc1)C2C (stereo partly shown) [Example 1.086] | 227
CCOc1cccc2c1CCN(Cc1ccc(C(C)NC(C)=O)cc1)C2 (stereo not shown) [Example 1.018] | 407
CC(=O)NC(C)c1ccc(CN2CCc3c(ccc(OCC4CC4)c3Br)C2)cc1 (stereo not shown) [Example 1.022] | 126
C[C@H](NC(=O)CC(=O)N(C)C)c1ccc(CN2CCc3cc(OC[C@@H]4CC4(F)F)ccc3C2)cc1 [Example 2.031] | 447
C[C@H](NC(=O)C1CC1)c1ccc(CN2Cc3ccc(OCC4CC4(F)F)cc3C(F)C2)cc1 (stereo partly shown) [Example 1.060] | 29
C[C@H](NC(=O)CC(=O)N(C)C)c1ccc(CN2CCc3cc(OCC4CC4)ccc3C2)cc1 [Example 2.03] | 459
COc1c(OCC2CC2(F)F)ccc2c1CCN(Cc1ccc([C@H](C)NC(=O)C3CC3)cc1)C2 (stereo partly shown) [Example 1.053] | 142
COc1c(OCCC(F)(F)F)ccc2c1CCN(Cc1ccc([C@H](C)NC(=O)C3CC3)cc1)C2 [Example 1.054] | 269
CC(=O)NC(C)c1ccc(CN2CCc3c(cccc3OCC3CC3)C2)cc1 (stereo not shown) [Example 1.006] | 878

Compound | IC50 [nM]
CC(=O)N[C@@H](C)c1ccc(CN2Cc3ccc(OCC4CC4(F)F)cc3C(F)C2)cc1 (stereo partly shown) [Example 1.092] | 16
CC(=O)NC(C)c1ccc(CN2CCc3c(ccc(OC4CCC4)c3Cl)C2)cc1 (stereo not shown) [Example 1.037] | 80
COc1c(OCCC(F)F)ccc2c1CCN(Cc1ccc([C@H](C)NC(C)=O)cc1)C2 [Example 1.072] | 141
COc1ccc2c(c1F)CCN(Cc1ccc([C@H](C)NC(C)=O)cc1)C2 [Example 1.080] | 396
C[C@H](NC(=O)C1CC1)c1ccc(CN2CCc3cc(OCCCF)ccc3C2)cc1 [Example 2.016] | 299
COc1c(OCc2ccccc2)ccc2c1CCN(Cc1ccc(C(C)NC(C)=O)cc1)C2 (stereo not shown) [Example 1.036] | 101
CC(=O)NC(C)c1ccc(CN2CCc3cc(OC4CCC4)ccc3C2)cc1 (stereo not shown) [Example 1.020] | 110
C[C@H](NC(=O)c1cncs1)c1ccc(CN2CCc3c(cccc3OC3CCC3)C2)cc1 [Example 2.014] | 144
C[C@H](NC(=O)C1CCC(=O)N1)c1ccc(CN2CCc3cc(OC[C@@H]4CC4(F)F)ccc3C2)cc1 (stereo partly shown) [Example 2.029] | 329
C[C@H](NC(=O)C1(O)CC1)c1ccc(CN2CCc3cc(OC[C@@H]4CC4(F)F)ccc3C2)cc1 [Example 2.028] | 217
C[C@H](NC(=O)C1CC1)c1ccc(CN2CCc3c(Br)cccc3C2)cc1 [Example 2.009] | 249
COc1c(OCC2CCC2)ccc2c1CCN(Cc1ccc([C@H](C)NC(=O)C3CC3)cc1)C2 [Example 1.055] | 41
CC(=O)Nc1nc(C)c(C(=O)N[C@@H](C)c2ccc(CN3CCc4cc(OCC5CC5)ccc4C3)cc2)s1 [Example 2.032] | 34
C[C@H](NC(=O)C1CC1)c1ccc(CN2CCc3cc(OC[C@@H]4CC4(F)F)ccc3C2)cc1 [Example 1.051] | 31
CC(=O)NC(C)c1ccc(CN2CCc3c(ccc(OCCC(F)(F)F)c3Cl)C2)cc1 (stereo not shown) [Example 1.034] | 54
C[C@H](NC(=O)CO)c1ccc(CN2CCc3cc(OC[C@@H]4CC4(F)F)ccc3C2)cc1 [Example 2.025] | 89
CCC(=O)Nc1nc(C)c(C(=O)N[C@@H](C)c2ccc(CN3CCc4cc(OCC5CC5)ccc4C3)cc2)s1 [Example 2.033] | 39
CC(=O)N[C@@H](C)c1ccc(CN2Cc3ccc(OCC4CC4(F)F)cc3C(O)C2)cc1 (stereo partly shown) [Example 1.091] | 130

The remaining lines, values ahead:

IC50 [nM] | Compound
872 | CCNC(=O)N[C@@H](C)c1ccc(CN2Cc3ccc(OCC4CC4)cc3C(O)C2)cc1 (stereo partly shown) [Example 5.006]
715 | CC(=O)N[C@@H](C)c1ccc(CN2CCc3c(cccc3C(=O)NCc3ccccc3)C2)cc1 [Example 8.001, 2-[4-((S)-1-Acetylamino-ethyl)-benzyl]-1,2,3,4-tetrahydro-isoquinoline-5-carboxylic acid benzylamide]
551 | C[C@H](NC(=O)C1CC1)c1ccc(CN2CC(=O)c3cc(OCC4CC4(F)F)ccc3C2)cc1 (stereo partly shown) [Example 7.006]
189 | CCC(=O)Nc1nc(C)c(C(=O)N[C@@H](C)c2ccc(CN3Cc4ccc(OCC5CC5)cc4C(O)C3)cc2)s1 (stereo partly shown) [Example 3.040]
358 | C[C@H](NC(=O)c1ncc[nH]1)c1ccc(CN2Cc3ccc(OCC4CC4)cc3C(F)C2)cc1 (stereo partly shown) [Example 3.033]
45 | C[C@H](NC(=O)[C@H]1C[C@H](F)C1)c1ccc(CN2Cc3ccc(OCC4CC4)cc3C(F)C2)cc1 (stereo partly shown) [Example 3.023]
38 | CCC(=O)N[C@@H](C)c1ccc(CN2Cc3ccc(OCC4CC4(F)F)cc3C(F)C2)cc1 (stereo partly shown) [Example 3.027]
143 | C[C@H](NC(=O)C1CCC(=O)N1)c1ccc(CN2Cc3ccc(OCC4CC4)cc3C(F)C2)cc1 (stereo partly shown) [Example 3.035]
29 | C[C@H](NC(=O)C(C)(F)F)c1ccc(CN2CCc3cc(OCC4CC4(F)F)ccc3C2)cc1 (stereo partly shown) [Example 3.002]
306 | C[C@H](NC(=O)[C@@H]1CC[C@H](NC(=O)OC(C)(C)C)C1)c1ccc(CN2Cc3ccc(OCC4CC4)cc3C(F)C2)cc1 (stereo partly shown) [Example 3.050]
308 | C[C@H](NC(=O)c1cncs1)c1ccc(CN2Cc3ccc(OCC4CC4)cc3C(O)C2)cc1 (stereo partly shown) [Example 3.047]
369 | COC(=O)N[C@@H](C)c1ccc(CN2Cc3ccc(OCC4CC4)cc3C(O)C2)cc1 (stereo partly shown) [Example 5.008]
50 | CC(=O)N[C@@H](C)c1ccc(CN2CC(=O)c3cc(OCC4CC4(F)F)ccc3C2)cc1 (stereo partly shown) [Example 7.009]
72 | C[C@H](NC(=O)C1CCC1)c1ccc(CN2Cc3ccc(OCC4CC4)cc3C(F)C2)cc1 (stereo partly shown) [Example 3.042]
40 | C[C@H](NC(=O)C1(C#N)CC1)c1ccc(CN2CCc3cc(OCC4CC4(F)F)ccc3C2)cc1 (stereo partly shown) [Example 3.013]
357 | C[C@H](NC(=O)C1COCCN1)c1ccc(CN2Cc3ccc(OCC4CC4)cc3C(F)C2)cc1 (stereo partly shown) [Example 3.057]
518 | CC(=O)Nc1nc(C)c(C(=O)N[C@@H](C)c2ccc(CN3Cc4ccc(OCC5CC5)cc4C(F)C3)cc2)o1 (stereo partly shown) [Example 3.036]
245 | C[C@H](NC(=O)C1CCC(=O)O1)c1ccc(CN2Cc3ccc(OCC4CC4)cc3C(F)C2)cc1 (stereo partly shown) [Example 3.054]
231 | CC(=O)Nc1nc(C)c(C(=O)N[C@@H](C)c2ccc(CN3Cc4ccc(OCC5CC5)cc4C(O)C3)cc2)s1 (stereo partly shown) [Example 3.045]
38 | C[C@H](NC(=O)C1CCC1)c1ccc(CN2CCc3cc(OCC4CC4(F)F)ccc3C2)cc1 (stereo partly shown) [Example 3.006]
37 | CCC(=O)Nc1nc(C)c(C(=O)N[C@@H](C)c2ccc(CN3CCc4cc(OCC5CC5(F)F)ccc4C3)cc2)s1 (stereo partly shown) [Example 3.017]
266 | C[C@H](NC(=O)c1cn[nH]c1)c1ccc(CN2Cc3ccc(OCC4CC4)cc3C(O)C2)cc1 (stereo partly shown) [Example 3.063]
60 | C[C@H](NC(=O)Cc1cnccn1)c1ccc(CN2Cc3ccc(OCC4CC4)cc3C(F)C2)cc1 (stereo partly shown) [Example 3.037]
91 | CC(C#N)C(=O)N[C@@H](C)c1ccc(CN2CCc3cc(OCC4CC4(F)F)ccc3C2)cc1 (stereo partly shown) [Example 3.003]
